Consider 2 molecules from US20050080139A1, “Naaladase inhibitors for treating huntington's disease” (priority 2001, published 2005).

Assay [1] concerns Transgenic HD mice of the N171-82Q strain. Kind of assay: Total distance traveled (overall locomotion) in HD mice. Format: in vivo. To be noted: 30 mg/kg from 10 weeks of age, vs vehicle. As to the method: Transgenic HD mice of the […]-[…] strain and non-transgenic littermates were treated with NAALADase inhibitor Compound B (30 mg/kg) or a vehicle from 10 weeks of age. The mice were placed on a rotating rod (“rotarod”). The length of time at which the mouse fell off the rotarod was recorded as a measure of motor coordination. […] The treatment with Compound B had no effect on the rotarod performance of normal non-HD mice. The total distance traveled by the mice was also recorded as a measure of overall locomotion.

Assay [2] relates to transgenic HD mice (N171-82Q). Kind of assay: Survival of transgenic HD mice. Format: in vivo. The protocol: The effects of Compound B and vehicle on the survival of transgenic HD mice (N171-82Q) were evaluated. Thirteen mice (six male and seven female) were assigned to the Compound B treatment group, and fourteen mice (six male and eight female) were assigned to the vehicle treatment group. Treatment was continued until all the mice died.

Assay [3] has as its system Transgenic HD mice of the N171-82Q strain. Kind of assay: Rotarod behavioral testing in transgenic mouse model of Huntington's disease. As to conditions: transgenic HD mice N171-82Q, 30 mg/kg from 10 weeks of age, vs vehicle. Type of assay: in vivo. As to the method: Transgenic HD mice of the […]-[…] strain and non-transgenic littermates were treated with NAALADase inhibitor Compound B (30 mg/kg) or a vehicle from 10 weeks of age. The mice were placed on a rotating rod (“rotarod”). The length of time at which the mouse fell off the rotarod was recorded as a measure of motor coordination. […] The treatment with Compound B had no effect on the rotarod performance of normal non-HD mice.

The target in assay [4] is NAALADase (Homo sapiens, UniProt Q04609). To be noted: NAAG as substrate of NAALADase; cited from earlier work.
Sequence of NAALADase (Q04609 whole entry): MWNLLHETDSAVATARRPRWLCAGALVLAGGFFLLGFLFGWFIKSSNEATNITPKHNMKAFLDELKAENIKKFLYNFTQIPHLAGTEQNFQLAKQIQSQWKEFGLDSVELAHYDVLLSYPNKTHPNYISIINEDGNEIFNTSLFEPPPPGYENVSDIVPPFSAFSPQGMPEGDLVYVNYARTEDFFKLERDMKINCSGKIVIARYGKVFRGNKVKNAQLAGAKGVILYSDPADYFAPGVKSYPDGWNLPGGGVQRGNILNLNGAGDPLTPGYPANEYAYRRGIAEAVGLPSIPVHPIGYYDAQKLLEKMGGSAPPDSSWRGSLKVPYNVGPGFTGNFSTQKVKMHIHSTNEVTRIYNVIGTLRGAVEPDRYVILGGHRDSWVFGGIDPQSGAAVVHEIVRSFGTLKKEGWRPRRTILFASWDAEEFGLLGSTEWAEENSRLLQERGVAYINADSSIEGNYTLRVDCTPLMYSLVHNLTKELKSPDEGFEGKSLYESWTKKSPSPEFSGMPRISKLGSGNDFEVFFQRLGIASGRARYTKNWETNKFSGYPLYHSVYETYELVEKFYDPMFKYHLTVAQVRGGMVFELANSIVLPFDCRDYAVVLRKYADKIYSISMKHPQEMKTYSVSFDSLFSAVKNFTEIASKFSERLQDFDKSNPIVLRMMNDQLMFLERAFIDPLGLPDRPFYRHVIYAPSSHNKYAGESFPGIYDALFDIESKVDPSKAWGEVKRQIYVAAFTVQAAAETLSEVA

For `O=C(O)CCC(CCCS)C(=O)O` (stereo not drawn) [Compound B, 2-(3-sulfanylpropyl)-pentanedioic acid], the “total distance traveled (overall locomotion)” value in assay [1] is recorded as “no apparent effect on overall locomotion”. Moreover, the “survival time vs vehicle” value is reported as “significantly prolonged survival time” in assay [2] (female transgenic HD mice, p-value 0.03) and “not statistically significant” in assay [2] (transgenic HD mice N171-82Q, both sexes, difference in median survival time). Also, the median survival time in assay [2] (transgenic HD mice N171-82Q, both sexes, vehicle 158.5 days, p-value=0.07) is recorded as 184 days. The “rotarod performance (length of time on the rotarod, motor coordination)” value in assay [3] was “stayed longer on the rotarod”.
As to N-acetyl-aspartyl-glutamate [NAAG], the Km in assay [4] was 0.54 µM.
